Values after ≈ are worked out from the molar mass of the structure shown.
Key:
[1] = Solubility at pH 7.4; type: physicochemical; settings: buffer
Staphylococcus aureus = assay: Inhibitory concentration required against cell wall synthesis in Staphylococcus aureus (MI246); type: functional, organism-based
Bacteria = assay: Minimum inhibitory concentration required against six gram-positive organisms (G+6); type: functional

SMILES | solubility [1] [µg/mL] | IC50 (Staphylococcus aureus) [µM] | MIC (Bacteria) [µM]
O=C(Nc1cc(C(F)(F)F)cc(C(F)(F)F)c1)Nn1cnnc1 | 53 (≈ 156 µM) | 236 | 198 (≈ 67.2 µg/mL)
O=C(NNc1nccc(C(F)(F)F)n1)Nc1cc(C(F)(F)F)cc(C(F)(F)F)c1 | 2 (≈ 4.62 µM) | 47 | 4 (≈ 1.73 µg/mL)
O=C(NNC(=O)Nc1cc(C(F)(F)F)cc(C(F)(F)F)c1)Nc1ccc(C(F)(F)F)cc1 |  | 145 | 2 (≈ 0.949 µg/mL)
O=C(Nc1cc(C(F)(F)F)cc(C(F)(F)F)c1)NN1CCN(CCO)CC1 |  | 167 | > 300
CC(C)c1nc2ccccc2c(=O)n1NC(=O)Nc1ccc(C(F)(F)F)cc1 | 6 (≈ 15.4 µM) | 44 | 10 (≈ 3.9 µg/mL)
O=C(NNC(=O)Nc1cc(C(F)(F)F)cc(C(F)(F)F)c1)Nc1cc(C(F)(F)F)cc(C(F)(F)F)c1 | < 0.5 | 17 | 3 (≈ 1.63 µg/mL)
O=C(Nc1cc(C(F)(F)F)cc(C(F)(F)F)c1)NN1CCOCC1 | 5 (≈ 14 µM) | 135 | 68 (≈ 24.3 µg/mL)
CCc1nc2ccccc2c(=O)n1NC(=O)Nc1cc(C(F)(F)F)cc(C(F)(F)F)c1 | 59 (≈ 133 µM) | 36 | 7 (≈ 3.11 µg/mL)
CC(C)c1nc2ccccc2c(=O)n1NC(=O)Nc1cc(C(F)(F)F)cc(C(F)(F)F)c1 | 3 (≈ 6.55 µM) | 66 | 1.5 (≈ 0.688 µg/mL)
CN[C@H](CC(C)C)C(=O)N[C@H]1C(=O)N[C@@H](CC(N)=O)C(=O)N[C@H]2C(=O)N[C@H]3C(=O)N[C@H](C(=O)N[C@H](C(=O)O)c4cc(O)cc(O)c4-c4cc3ccc4O)[C@H](O)c3ccc(c(Cl)c3)Oc3cc2cc(c3O[C@@H]2O[C@H](CO)[C@@H](O)[C@H](O)[C@H]2O[C@H]2C[C@](C)(N)[C@H](O)[C@H](C)O2)Oc2ccc(cc2Cl)[C@H]1O [VANCOMYCIN] |  | 0.4 | 0.3 (≈ 0.435 µg/mL)
